This test relates to INS-1E cytokine-induced caspase-3/7, Caspase-Glo luminescence, 48 h. Briefly: suppression of cytokine-driven beta-cell apoptosis – INS-1E rat cells, luminescence, orthogonal assay for beta-cell apoptosis protection project, dose response (AID 463206).

SMILES strings stand for the structures. Activity calls are given as the source filed them.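 Rule for the calls: active = caspase luminescence falls with dose and the half-maximal concentration AC50 from the fitted curve is at or below a set limit; inconclusive = flat fit at 30 to 70% signal loss, or invalid fit; inactive = AC50 above the limit, or signal rises instead.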 Where only a bound is given, the exact number is not on record here.

For `C=CC[n+]1c(-c2ccc(OCC)cc2)csc1NNC(=O)Nc1ccccc1`, the AC50 (in general, the midpoint of the concentration-response curve, whichever way the signal moves) is > 26 µM (inactive).
In the case of `Cc1ccccc1NC1=C/C(=N\S(=O)(=O)c2ccc(C(=O)O)cc2)c2ccccc2C1=O`, the AC50 was > 26 µM (inactive).
For `CC(=O)c1cn(CCOc2cc(C)ccc2C)c2ccccc12` the value was > 26 µM (inactive); for `COc1ccc(-n2cc(-c3ccccc3)[n+]3c2CCCCC3)cc1`, > 26 µM (inactive).
For `O=c1c(Cl)c(Cl)cnn1Cc1ccc(F)cc1` the value was > 26 µM (inactive); for `Cc1nc(C(F)(F)F)c(C(=O)N/N=C(\N)c2ccccn2)s1`, > 26 µM (inactive); for `CC(C)(C)Sc1ccc2nc3c(n2c1)CCCC3`, > 26 µM (inactive).
The figure for `C/C(=N\Nc1nc(C)cc(-c2ccccc2)n1)c1ccccc1` is > 26 µM (inactive); for `Cc1ccc(C(C)C)c(OCc2ccc(C(=O)N/N=C/c3cccc(O)c3O)cc2)c1` it is > 26 µM (inactive); for `Cc1cc(/C=N/n2cnnc2)c(C)n1-c1ccc(OCc2ccc(Cl)cc2Cl)cc1` it is > 26 µM (inactive).
For the compound `CCCCCn1c(=O)c(C(=O)Nc2nc3ccccc3[nH]2)c(O)c2ccccc21`, the AC50 is > 26 µM (inactive).
The figure for `COC(=O)c1c(C)oc2ccc(N(C(=O)c3ccncc3)S(=O)(=O)c3ccc(C)cc3C)cc12` is > 26 µM (inactive); for `COc1cc2c(cc1OC)C(NC(=O)C(F)(F)F)CNC2=O` (centres undefined) it is > 26 µM (inactive); for `CCCCCc1ccc(OCCCC[n+]2cccc(C)c2)c(CCCCC)c1` it is > 26 µM (inactive).
For `Cc1cccc(NC(=O)/C=C/c2ccc([N+](=O)[O-])s2)c1` the value was 2.71 µM.
The figure for `N=c1c2c(-c3ccccc3)c(-c3ccccc3)n(Cc3ccco3)c2ncn1CCCN1CCOCC1` is 16.7 µM.
On to `Cc1ccc(C(=O)C[n+]2cc(-c3ccc(C)cc3)n3c2CCCCC3)cc1`, for which the AC50 is > 26 µM (inactive).
For `CC(=O)c1ccccc1OCCOCCOc1ccccc1C(C)=O` the value was > 26 µM (inactive); for `CCOc1ccc(-n2c(O)c(/C=N/Nc3nc(C)cc(C)n3)c3ccccc3c2=O)cc1`, > 26 µM (inactive).
The figure for `Cc1ccc2oc(-c3ccc(NC(=O)c4cccnc4)cc3)nc2c1` is > 26 µM (inactive).
The figure for `O=C1C=C(c2cccs2)C[C@H](c2ccccc2)[C@H]1n1nnc([N+](=O)[O-])n1` is > 26 µM (inactive).
For `CCCCSc1ccc(NC(=O)c2cccnc2)cc1`, the AC50 was > 26 µM (inactive).
The figure for `COc1ccc([N+](=O)[O-])c(S(=O)(=O)c2ccc(Cl)cc2)n1` is > 26 µM (inactive); for `O=c1c2c(nc3c(-c4ccc(Cl)cc4)c[nH]n13)CCCC2` it is > 26 µM (inactive).
The figure for `CC(=O)c1c(C)[nH]c(C(=O)OCc2cccc(Cl)c2)c1C` is > 12 µM (inactive); for `Cc1ccc2nc(/C(C#N)=C\c3ccc([N+](=O)[O-])o3)[nH]c2c1` it is > 26 µM (inactive).
For `Cc1nc(NCCc2ccc(S(N)(=O)=O)cc2)c2c(C)c(C)sc2n1` the value was > 26 µM (inactive); for `Cc1nc(Nc2ccc(Cl)c(Cl)c2)sc1C(=O)Nc1ccccc1`, > 26 µM (inactive); for `O=C(N/N=C/c1cc(Cl)ccc1O)c1ccccc1Br`, > 26 µM (inactive).
Consider `CCCCCCn1c2c(c(=N)c3c1CCC3)CCC2`, for which the AC50 is > 26 µM (inactive).
For `CCc1nc(N2CCN(C(C)=O)CC2)c2c3c(sc2n1)CC(C(C)(C)C)CC3` (centres undefined) the value was > 26 µM (inactive); for `COc1ccc(N(C(=O)CCl)C(C(=O)NCCc2ccccc2)c2cccs2)cc1Cl` (centres undefined), > 26 µM (inactive).
The figure for `Cc1ccccc1C(=O)Nc1cccc(C(=O)N/N=C/c2cc(Cl)cc([N+](=O)[O-])c2O)c1` is > 26 µM (inactive).
With `C[n+]1c2n(c3ccccc31)N=C(c1cc(C(C)(C)C)c(O)c(C(C)(C)C)c1)CS2`, the AC50 is > 26 µM (inactive).
The figure for `O=C(c1cc(COc2cccc3cnccc23)on1)N1CCCC(CCCO)C1` (centres undefined) is > 26 µM (inactive); for `CC1=C(C#N)C(C(F)(F)F)(C(F)(F)F)N=C(c2ccco2)N1` it is > 26 µM (inactive).
The figure for `FC(F)(F)c1nnc(-c2ccccc2)nc1Sc1ccc(Cl)cc1` is > 26 µM (inactive); for `Cc1ccc2[nH]cc(/C=C/c3cc[n+](C)cc3)c2c1` it is > 26 µM (inactive); for `Cc1ccc(NC(=O)Cn2c(=O)oc3cc(S(=O)(=O)N4CCC(C)CC4)ccc32)cc1C` it is > 26 µM (inactive).
The figure for `Cc1cc(C)nc(N/N=C2/CCCC/C2=C\c2ccccc2)n1` is > 26 µM (inactive).
As to `O=C(N/N=C/c1cc(Br)ccc1OC(=O)c1ccc(Br)cc1)c1ccncc1`, the AC50 was > 26 µM (inactive).
As for `Nc1nc(-c2ccccn2)nc(N)c1Cc1ccc(Cl)cc1Cl`, the AC50 is > 26 µM (inactive).
For `COc1cc(C(=O)NC(=S)NNC(=O)c2cnccn2)cc(OC)c1OC` the value was > 26 µM (inactive); for `COc1cccc(/C=N/Nc2ncnc(Cl)c2N)c1O`, > 26 µM (inactive); for `O=[N+]([O-])c1cccc(-c2cn3nc(-c4ccccc4)c(-c4ccccc4)nc3n2)c1`, > 26 µM (inactive).
The figure for `C/C(=N\NC(=O)COc1ccccc1-c1ccccc1)c1ccccn1` is > 26 µM (inactive); for `COc1cccc(/C=N/Nc2nc3ccccc3n3cnnc23)c1O` it is > 26 µM (inactive).
For the compound `CC(C)C[C@H]1CN=C(Nc2ccccc2)N1CC1CCC(C(C)(C)C)CC1` (some centres undefined), the AC50 is > 26 µM (inactive).
For `COC(/C(=N/O)c1ccc(Cl)cc1)c1ccccc1` (centres undefined) the value was > 26 µM (inactive).
For `O=C(c1cc(COc2cccc(C(F)(F)F)c2)on1)N1CCC(c2ccncc2)CC1` the value was > 26 µM (inactive); for `C=C1C(O)[C@@H]2O[C@]3(CC[C@H](/C=C/C(C)[C@@H]4CC(C)=CC5(O[C@H](C[C@@](C)(O)CO)CCC5O)O4)O3)CC[C@H]2O[C@@H]1C(O)CC(C)[C@H]1OC2(CCCCO2)CCC1C` (some centres undefined), 3.84 µM; for `Cc1cc2nc(-c3ccc(NC(=O)c4cccnc4)cc3)oc2cc1C`, > 26 µM (inactive).
The figure for `Cc1ccc(S(=O)(=O)CC2CSc3nc4ccccc4n32)cc1` (centres undefined) is > 12 µM (inactive); for `CCC(=O)NC(c1cccs1)c1cc(Cl)c2cccnc2c1O` (centres undefined) it is > 26 µM (inactive).
In the case of `COc1ccc(C(CCNCc2ccc(OC(C)C)cc2)c2ccccc2OC)cc1` (centres undefined), the AC50 was > 26 µM (inactive).
Consider `Cc1ccc2nc(-c3cccc(-c4cccc(Cl)c4)c3)c(NCc3ccccc3)n2c1`, for which the AC50 was > 26 µM (inactive).
Consider `COc1ccc(C2C(C#N)=C(N)Oc3c2ccc2cccnc32)cc1OC` (centres undefined), for which the AC50 is > 12 µM (inactive).
For `C/C(=N/NC(=O)c1ccc(C(C)(C)C)cc1)c1ccccn1` the value was > 26 µM (inactive); for `CCCCCCCCCn1c2c(c(=N)c3c1CCC3)CCC2`, > 12 µM (inactive).
For `Nc1ccc2c(c1)C(=O)C(=O)c1ccccc1-2` the value was > 26 µM (inactive).
Regarding `C#CCOCCOCCOCCNc1nc(N2CCN(C(=O)CCCCCCCCCCNC(=O)[C@H]([C@@H](C)CC)n3cc(CCCCCN)nn3)CC2)nc(N2CCN(C(=O)CCCCCCCCCCNC(=O)[C@H]([C@@H](C)CC)n3cc(CCCCN=C(N)N)nn3)CC2)n1`, the AC50 is > 26 µM (inactive).
As to `Nc1c(C(=O)Nc2ccc(S(=O)(=O)N3CCCC3)cc2)sc2nc3ccc(OC(F)(F)F)cc3cc12`, the AC50 is > 26 µM (inactive).
The figure for `CCOC(=O)c1cnc(-n2nc(C)cc2C)nc1NNc1cc(C)nc(-c2ccccc2)n1` is > 26 µM (inactive); for `Cc1cc(C)cc(Oc2cc(NC(=O)c3cn(C)nc3C)cc([N+](=O)[O-])c2)c1` it is > 26 µM (inactive).
For `CC1=[N+](C)c2ccc3ccccc3c2C1(C)C` the value was > 26 µM (inactive); for `Cc1ccc(C(=O)c2c(C)oc3c2C(=O)C(=O)c2ccccc2-3)cc1`, > 26 µM (inactive).
The figure for `c1ccc(-c2nnc3sc(-c4csc5c4CCCC5)nn23)cc1` is > 26 µM (inactive); for `NS(=O)(=O)c1ccc(N/N=C2/CCCCC2C2CCCCC2)c([N+](=O)[O-])c1` (centres undefined) it is > 12 µM (inactive).
For `CC1=NN(c2nc(-c3ccc(C)cc3)cs2)C(=O)C1N=Nc1ccc(C(N)=O)cc1` (centres undefined), the AC50 is > 26 µM (inactive).
On to `O=C(O)CCCC(=O)Nc1ccc(C(=O)NCc2cccnc2)cc1`, for which the AC50 was > 26 µM (inactive).
Regarding `C=CCn1nc([N+](=O)[O-])nc1Sc1cccc2cccnc12`, the AC50 is > 26 µM (inactive).
The figure for `COc1ccc(N/N=C(/N=Nc2nc(C)cc(=O)[nH]2)c2ccccc2)cc1` is > 26 µM (inactive); for `CCCCCCCCCCCCCCCC[N+](C)(C)CC` it is > 26 µM (inactive).
For `COc1cccc(/C=N/NC(=O)CNC(=O)c2cccs2)c1O` the value was > 26 µM (inactive); for `N#Cc1c2ccc([N+](=O)[O-])cc2[n+]([O-])n1-c1ccccc1`, > 26 µM (inactive).
The figure for `CCN(c1ccccc1)S(=O)(=O)c1ccc(C(=O)NC2CCN(Cc3ccccc3)CC2)cc1` is > 26 µM (inactive); for `CCCCCCCCCCOC(=O)Cn1c(COc2ccccc2OC)[n+](C)c2ccccc21` it is > 26 µM (inactive).
For the compound `CC(NC(=S)NC1CCCCC1)c1ccc(C(C)(C)C)cc1` (centres undefined), the AC50 is > 26 µM (inactive).
Take `CNC[C@@H](CC1CCCCC1)NC[C@H](CC(C)C)NCCc1cccc(C(F)(F)F)c1`: the AC50 is > 26 µM (inactive).
For `CCCC(=O)NC(c1ccc(OC)cc1)c1ccc2cccnc2c1O` (centres undefined) the value was > 26 µM (inactive).
Turning to `CCOC(=O)c1cnc(-n2nc(C)cc2C)nc1NC1CCCC1`, the AC50 is > 26 µM (inactive).
For `Cc1cccc(-n2c(C)cc(/C=N/n3cnnc3)c2C)c1` the value was > 26 µM (inactive).
The figure for `CCCOc1ccc(C(=O)C(CN2CCOCC2)c2ccccc2)cc1` (centres undefined) is > 12 µM (inactive); for `c1cnc(N2CCN(Cc3c[nH]c4ccccc34)CC2)nc1` it is > 26 µM (inactive).

The record behind these values is PubChem BioAssay AID463206 (Broad Institute, 2010).
